Source: US9181273B2, “Morpholine-spirocyclic piperidine amides as modulators of ion channels” (Vertex Pharmaceuticals Incorporated, priority 2011, dated 2015)

These molecules were tested against human NaV subtype, like NaV 1.7 (Homo sapiens, UniProt Q15858) (assay: E-VIPR optical membrane potential assay with electrical stimulation). Conditions: not given.
Sequence of human NaV subtype, like NaV 1.7 (Q15858 whole entry): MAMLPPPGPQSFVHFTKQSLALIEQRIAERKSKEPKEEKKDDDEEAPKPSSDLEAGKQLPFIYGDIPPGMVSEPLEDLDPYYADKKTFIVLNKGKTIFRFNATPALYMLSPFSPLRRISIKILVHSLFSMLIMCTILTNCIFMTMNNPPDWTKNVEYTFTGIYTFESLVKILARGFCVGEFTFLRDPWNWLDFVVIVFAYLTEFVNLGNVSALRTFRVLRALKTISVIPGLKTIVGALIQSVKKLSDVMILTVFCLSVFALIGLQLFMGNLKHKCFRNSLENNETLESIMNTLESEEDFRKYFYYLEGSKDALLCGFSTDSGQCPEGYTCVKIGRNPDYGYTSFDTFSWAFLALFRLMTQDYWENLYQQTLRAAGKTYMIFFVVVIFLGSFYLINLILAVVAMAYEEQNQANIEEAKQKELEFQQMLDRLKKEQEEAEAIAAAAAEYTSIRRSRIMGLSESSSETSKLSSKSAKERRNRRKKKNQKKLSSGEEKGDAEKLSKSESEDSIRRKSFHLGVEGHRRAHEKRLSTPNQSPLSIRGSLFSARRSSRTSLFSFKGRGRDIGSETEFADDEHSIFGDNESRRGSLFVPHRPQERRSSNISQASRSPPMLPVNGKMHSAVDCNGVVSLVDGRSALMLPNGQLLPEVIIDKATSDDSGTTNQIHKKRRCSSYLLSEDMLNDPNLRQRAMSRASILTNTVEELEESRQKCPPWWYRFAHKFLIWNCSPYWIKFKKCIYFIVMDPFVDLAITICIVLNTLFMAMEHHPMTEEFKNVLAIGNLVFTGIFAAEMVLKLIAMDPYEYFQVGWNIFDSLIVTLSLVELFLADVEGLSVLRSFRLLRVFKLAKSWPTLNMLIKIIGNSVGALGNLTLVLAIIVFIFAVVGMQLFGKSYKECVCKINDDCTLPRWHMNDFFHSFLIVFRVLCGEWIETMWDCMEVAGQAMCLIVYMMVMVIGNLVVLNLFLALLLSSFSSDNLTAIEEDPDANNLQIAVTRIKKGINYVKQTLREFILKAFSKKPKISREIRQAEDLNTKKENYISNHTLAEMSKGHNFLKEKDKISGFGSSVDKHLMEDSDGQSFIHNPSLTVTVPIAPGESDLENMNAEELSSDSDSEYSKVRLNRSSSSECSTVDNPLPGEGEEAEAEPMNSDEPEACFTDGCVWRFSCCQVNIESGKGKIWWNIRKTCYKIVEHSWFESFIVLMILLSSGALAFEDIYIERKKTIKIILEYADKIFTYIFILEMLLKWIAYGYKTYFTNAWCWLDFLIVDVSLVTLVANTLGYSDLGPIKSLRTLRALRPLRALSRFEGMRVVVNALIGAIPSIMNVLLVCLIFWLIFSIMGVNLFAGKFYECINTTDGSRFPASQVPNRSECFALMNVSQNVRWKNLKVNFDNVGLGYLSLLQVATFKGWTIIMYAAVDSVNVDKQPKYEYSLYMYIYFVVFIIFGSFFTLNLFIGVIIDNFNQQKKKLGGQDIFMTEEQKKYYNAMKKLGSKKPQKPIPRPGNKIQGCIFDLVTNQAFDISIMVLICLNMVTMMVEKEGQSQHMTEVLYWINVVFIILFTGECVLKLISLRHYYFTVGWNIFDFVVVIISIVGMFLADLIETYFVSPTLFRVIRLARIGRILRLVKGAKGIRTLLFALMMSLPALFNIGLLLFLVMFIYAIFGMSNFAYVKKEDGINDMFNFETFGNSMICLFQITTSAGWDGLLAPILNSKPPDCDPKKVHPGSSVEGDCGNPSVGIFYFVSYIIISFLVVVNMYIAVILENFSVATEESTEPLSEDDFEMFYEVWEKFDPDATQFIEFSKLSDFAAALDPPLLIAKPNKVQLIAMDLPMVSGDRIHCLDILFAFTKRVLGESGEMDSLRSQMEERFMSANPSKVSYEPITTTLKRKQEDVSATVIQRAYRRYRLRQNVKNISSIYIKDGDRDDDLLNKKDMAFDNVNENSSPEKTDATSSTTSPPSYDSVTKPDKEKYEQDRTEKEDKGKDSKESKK
Format: cell-based
`COCC1CN(c2ncccn2)CC2(CCN(C(=O)c3ccc(C(C)(C)C)c(OC)c3)CC2)O1` (stereo not shown) [Compound 191] was tested, and the IC50 was < 2000 nM.

Same assay, conditions: active against one or more sodium channels; assay and NaV subtype not specified for Table 3; read-out: IC50 Binned Activity Data
Molecule `Cc1noc(C2CN(CC(F)(F)F)CC3(CCN(C(=O)c4ccc(OC(C)C)c(C)c4)CC3)O2)n1` (stereo not shown) [Compound 149] has an IC50 of 2000 to 5000 nM.
With `COc1cc(C(=O)N2CCC3(CC2)CN(CC(F)F)CC(c2ccccc2)O3)ccc1OC(C)C` (stereo not shown) [Compound 219] the IC50 was < 2000 nM.
`COCC1CN(C2CCOCC2)CC2(CCN(C(=O)c3ccc(OC(C)C)c(C)c3)CC2)O1` (stereo not shown) [Compound 270] gave an IC50 of 2000 to 5000 nM.
In the case of `CCCN1CC(COC)OC2(CCN(C(=O)c3ccc(OC(C)C)c(C)c3)CC2)C1` (stereo not shown) [Compound 205], the IC50 is reported as < 2000 nM.
With `CC(C)Oc1ccc(C(=O)N2CCC3(CC2)CN(CC(F)F)CC(c2ccccc2Cl)O3)cc1F` (stereo not shown) [Compound 190] the IC50 was < 2000 nM.
With `COCC1CN(CC(F)(F)F)CC2(CCN(C(=O)c3ccc(OC(C)C)c(C)c3)CC2)O1` (stereo not shown) [Compound 260] the IC50 was < 2000 nM.
In the case of `Cc1cc(C(=O)N2CCC3(CC2)CN(CC(F)F)CC(c2ccccn2)O3)ccc1S(=O)(=O)C(C)C` (stereo not shown) [Compound 65], the IC50 is reported as > 5000 nM.
In the case of `COc1cc(C(=O)N2CCC3(CC2)CN(CC(F)F)CC(c2cccc(C)n2)O3)cc(F)c1OC(C)C` (stereo not shown) [Compound 162], the IC50 is reported as > 5000 nM.
With `CC(C)(O)c1ccc(C(=O)N2CCC3(CC2)CN(CC#N)CC(c2ccccc2)O3)cc1` (stereo not shown) [Compound 275] the IC50 was > 5000 nM.
In the case of `O=C(c1cc(Cl)cc(Cl)c1)N1CCC2(CC1)CN(CC(F)(F)F)CC(c1ccccc1)O2` (stereo not shown) [Compound 118], the IC50 is reported as > 5000 nM.
With `COc1cccc(C(=O)N2CCC3(CC2)CN(CC(F)F)CC(c2ccccc2)O3)n1` (stereo not shown) [Compound 144] the IC50 was 2000 to 5000 nM.
With `CCN1CC(c2ccccc2)OC2(CCN(C(=O)c3ccc(OC(C)C)nc3)CC2)C1` (stereo not shown) [Compound 308] the IC50 was > 5000 nM.
`COCC1CN(c2ncccn2)CC2(CCN(C(=O)c3ccc(OCC(C)(C)O)c(C)c3)CC2)O1` (stereo not shown) [Compound 216] was tested, and the IC50 was 2000 to 5000 nM.
`CCOc1cc(C(=O)N2CCC3(CC2)CN(CC)CC(c2ccccc2)O3)ccc1CO` (stereo not shown) [Compound 203] showed an IC50 of 2000 to 5000 nM.
`COCC1CN(c2ncccn2)CC2(CCN(C(=O)c3ccc(S(=O)(=O)C(F)F)cc3)CC2)O1` (stereo not shown) [Compound 8] gave an IC50 of 2000 to 5000 nM.
With `CC(C)Oc1ccc(C(=O)N2CCC3(CC2)CN(CC(F)(F)F)CC(c2ccccc2)O3)cc1CO` (stereo not shown) [Compound 194] the IC50 was < 2000 nM.
In the case of `Cc1cc(C(=O)N2CCC3(CC2)CN(CC(C)(C)O)CC(c2ccccc2)O3)ccc1OC(C)C` (stereo not shown) [Compound 24], the IC50 is reported as < 2000 nM.
For `CC(C)CS(=O)(=O)c1ccc(C(=O)N2CCC3(CC2)CN(CC(F)(F)F)CC(c2ccccc2)O3)cc1` (stereo not shown) [Compound 165], the IC50 was < 2000 nM.
`CCOc1ccc(C(=O)N2CCC3(CC2)CN(CC)CC(c2ccccc2)O3)cc1CO` (stereo not shown) [Compound 145] was tested, and the IC50 was > 5000 nM.
With `Cc1cnc(C2CN(C(C)(C)C)CC3(CCN(C(=O)c4ccc(OC(C)C)c(F)c4)CC3)O2)o1` (stereo not shown) [Compound 268] the IC50 was 2000 to 5000 nM.
For `COC(=O)c1ccnc(N2CC(CO)OC3(CCN(C(=O)c4ccc(OC(C)C)c(C)c4)CC3)C2)n1` (stereo not shown) [Compound 36], the IC50 was > 5000 nM.
In the case of `COCC1CN(c2ncc(F)cn2)CC2(CCN(C(=O)c3ccc(OC(C)C)c(C)c3)CC2)O1` (stereo not shown) [Compound 187], the IC50 is reported as < 2000 nM.
In the case of `COCC1CN(c2ccc(OC)cc2)CC2(CCN(C(=O)c3ccc(OC(C)C)c(C)c3)CC2)O1` (stereo not shown) [Compound 183], the IC50 is reported as < 2000 nM.
For `Cc1cc(C(=O)N2CCC3(CC2)CN(CC(F)F)CC(c2ccc(Cl)cc2)O3)ccc1OC(C)C` (stereo not shown) [Compound 122], the IC50 was > 5000 nM.
`CC(C)Oc1ccc(C(=O)N2CCC3(CC2)CN(CC(F)(F)F)CC(c2ccccc2)O3)cc1` (stereo not shown) [Compound 119] was tested, and the IC50 was < 2000 nM.
In the case of `COCC1CN(CCSC)CC2(CCN(C(=O)c3ccc(OC(C)C)c(C)c3)CC2)O1` (stereo not shown) [Compound 184], the IC50 is reported as < 2000 nM.
With `COCC1CN(CC(=O)C(C)(C)C)CC2(CCN(C(=O)c3ccc(OC(C)C)c(C)c3)CC2)O1` (stereo not shown) [Compound 193] the IC50 was < 2000 nM.
For `Cc1cc(C(=O)N2CCC3(CC2)CN(CC(F)F)CC(c2[nH]ncc2C)O3)ccc1OC(C)C` (stereo not shown) [Compound 150], the IC50 was < 2000 nM.
`CCN1CC(c2ccccc2)OC2(CCN(C(=O)c3ccc(OC(C)C)c(CO)c3)CC2)C1` (stereo not shown) [Compound 166] was tested, and the IC50 was 2000 to 5000 nM.
Molecule `CCC(=O)N1CC(c2ccccc2)OC2(CCN(C(=O)c3ccc(OC(C)C)c(C)c3)CC2)C1` (stereo not shown) [Compound 266] has an IC50 of 2000 to 5000 nM.
In the case of `CCC(CC)CN1CC(COC)OC2(CCN(C(=O)c3ccc(OC(C)C)c(C)c3)CC2)C1` (stereo not shown) [Compound 112], the IC50 is reported as < 2000 nM.
With `CCOCCN1CC(COC)OC2(CCN(C(=O)c3ccc(OC(C)C)c(C)c3)CC2)C1` (stereo not shown) [Compound 55] the IC50 was < 2000 nM.
`CC(C)Oc1ccc(C(=O)N2CCC3(CC2)CN(CC(F)(F)F)CC(c2ccccc2)O3)c(F)c1` (stereo not shown) [Compound 135] was tested, and the IC50 was < 2000 nM.
In the case of `CCN(CC)C(=O)c1ccc(C(=O)N2CCC3(CC2)CN(CC(F)(F)F)CC(c2ccccc2)O3)cc1F` (stereo not shown) [Compound 293], the IC50 is reported as < 2000 nM.
For `COCC1CN(CC2CCCCC2)CC2(CCN(C(=O)c3ccc(OC(C)C)c(C)c3)CC2)O1` (stereo not shown) [Compound 206], the IC50 was < 2000 nM.
`Cc1cc(C(=O)N2CCC3(CC2)CN(CC(F)F)CC(c2ccccn2)O3)ccc1OCCCO` (stereo not shown) [Compound 305] gave an IC50 of 2000 to 5000 nM.
`O=C(c1ccc(S(=O)(=O)NC2CC2)cc1)N1CCC2(CC1)CN(CC(F)(F)F)CC(c1ccccc1)O2` (stereo not shown) [Compound 99] was tested, and the IC50 was < 2000 nM.
With `Cc1cnc(C2CN(CC(F)(F)F)CC3(CCN(C(=O)c4ccc(OC(C)C)c(C)c4)CC3)O2)s1` (stereo not shown) [Compound 196] the IC50 was < 2000 nM.
`COCC1CN(c2ncccn2)CC2(CCN(C(=O)c3ccc(C4(O)CCC4)c(C)c3)CC2)O1` (stereo not shown) [Compound 93] was tested, and the IC50 was < 2000 nM.
With `CC(C)(O)c1ccc(C(=O)N2CCC3(CC2)CN(CC(F)F)CC(c2ccccc2)O3)cc1` (stereo not shown) [Compound 241] the IC50 was 2000 to 5000 nM.
`Cc1cc(C(=O)N2CCC3(CC2)CN(c2ncccn2)CC(COC(C)C)O3)ccc1OC(C)C` (stereo not shown) [Compound 114] was tested, and the IC50 was < 2000 nM.
With `Cc1ccc(C2CN(CC(F)F)CC3(CCN(C(=O)c4ccc(OC(C)C)c(C)c4)CC3)O2)cc1` (stereo not shown) [Compound 63] the IC50 was 2000 to 5000 nM.
In the case of `CCC1CN(c2ccccn2)CC2(CCN(C(=O)c3ccc(C(C)(C)O)c(F)c3)CC2)O1` (stereo not shown) [Compound 41], the IC50 is reported as < 2000 nM.
For `Cc1cc(C(=O)N2CCC3(CC2)CN(CC(F)(F)F)CC(c2ccccc2)O3)ccc1OCC(C)(C)O` (stereo not shown) [Compound 138], the IC50 was < 2000 nM.
`O=C(c1ccc(S(=O)(=O)C2CCOC2)cc1)N1CCC2(CC1)CN(CC(F)F)CC(c1ccc(F)cc1)O2` (stereo not shown) [Compound 96] was tested, and the IC50 was > 5000 nM.
In the case of `COCC1CN(c2ncccn2)CC2(CCN(C(=O)c3ccc(OC(C)C)c(CO)c3)CC2)O1` (stereo not shown) [Compound 15], the IC50 is reported as > 5000 nM.
`COCC1CN(c2ncccn2)CC2(CCN(C(=O)c3ccc(C(O)C(C)C)cc3)CC2)O1` (stereo not shown) [Compound 197] gave an IC50 of 2000 to 5000 nM.
`O=C(c1cccc(Cl)c1)N1CCC2(CC1)CN(CC(F)(F)F)CC(c1ccccc1)O2` (stereo not shown) [Compound 155] was tested, and the IC50 was > 5000 nM.
With `Cc1cccc(C2CN(CC(F)F)CC3(CCN(C(=O)c4ccc(S(=O)(=O)C(C)C)c(C)c4)CC3)O2)n1` (stereo not shown) [Compound 265] the IC50 was 2000 to 5000 nM.
`COCC1CN(c2cccc(C(F)(F)F)c2)CC2(CCN(C(=O)c3ccc(C4(O)CCC4)cc3)CC2)O1` (stereo not shown) [Compound 223] was tested, and the IC50 was < 2000 nM.
With `CC#CCN1CC(CF)OC2(CCN(C(=O)c3ccc(OC(C)C)c(C)c3)CC2)C1` (stereo not shown) [Compound 139] the IC50 was > 5000 nM.
With `CC(C)Oc1ccc(C(=O)N2CCC3(CC2)CN(CC(F)F)CC(c2cc[nH]n2)O3)cc1F` (stereo not shown) [Compound 226] the IC50 was 2000 to 5000 nM.
`COCC1CN(c2cccc(C(F)(F)F)c2)CC2(CCN(C(=O)c3ccc(OC(C)C)c(C)c3)CC2)O1` (stereo not shown) [Compound 258] was tested, and the IC50 was < 2000 nM.
In the case of `CC(C)CS(=O)(=O)c1ccc(C(=O)N2CCC3(CC2)CN(CC(F)F)CC(c2ccc(F)cc2)O3)cc1` (stereo not shown) [Compound 109], the IC50 is reported as 2000 to 5000 nM.
